Assay results as given in publication PMC3548978 (Analytical and bioanalytical chemistry, 2012).

Assays:
Type in all cases: biochemical
PCAF [1] = biological target: T1, PCAF (Homo sapiens, UniProt Q92831); assay: radioisotope […]Ac-CoA HAT assay, […] probe
p300 = p300 (Homo sapiens, UniProt Q09472); assay: radioisotope […]Ac-CoA HAT assay, […] probe, […] activity lost; conditions: read-out: % activity lost at 50 μM
Tip60 = Tip60 (Homo sapiens, UniProt Q92993); assay: CPM fluorescent HAT assay with H4-20 and Ac-CoA
Chain of Tip60 (Q92993 whole entry): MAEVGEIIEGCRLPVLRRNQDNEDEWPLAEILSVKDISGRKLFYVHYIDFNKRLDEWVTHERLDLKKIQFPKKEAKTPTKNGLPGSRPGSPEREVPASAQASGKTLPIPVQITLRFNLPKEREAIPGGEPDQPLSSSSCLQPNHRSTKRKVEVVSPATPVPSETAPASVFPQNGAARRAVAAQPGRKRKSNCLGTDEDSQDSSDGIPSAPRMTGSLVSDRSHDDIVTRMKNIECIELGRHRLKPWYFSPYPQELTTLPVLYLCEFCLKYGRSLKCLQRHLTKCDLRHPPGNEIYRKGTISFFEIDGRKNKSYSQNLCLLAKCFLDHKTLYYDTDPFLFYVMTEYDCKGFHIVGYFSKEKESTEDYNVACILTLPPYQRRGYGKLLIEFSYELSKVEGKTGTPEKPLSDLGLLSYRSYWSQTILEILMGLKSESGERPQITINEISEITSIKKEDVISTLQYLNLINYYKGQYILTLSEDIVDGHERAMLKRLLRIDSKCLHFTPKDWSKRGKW

PCAF [2] = biological target: T1, PCAF; assay: CPM fluorescent HAT assay with H3-20 and Ac-CoA

Chain of p300 (Q09472 2-2414): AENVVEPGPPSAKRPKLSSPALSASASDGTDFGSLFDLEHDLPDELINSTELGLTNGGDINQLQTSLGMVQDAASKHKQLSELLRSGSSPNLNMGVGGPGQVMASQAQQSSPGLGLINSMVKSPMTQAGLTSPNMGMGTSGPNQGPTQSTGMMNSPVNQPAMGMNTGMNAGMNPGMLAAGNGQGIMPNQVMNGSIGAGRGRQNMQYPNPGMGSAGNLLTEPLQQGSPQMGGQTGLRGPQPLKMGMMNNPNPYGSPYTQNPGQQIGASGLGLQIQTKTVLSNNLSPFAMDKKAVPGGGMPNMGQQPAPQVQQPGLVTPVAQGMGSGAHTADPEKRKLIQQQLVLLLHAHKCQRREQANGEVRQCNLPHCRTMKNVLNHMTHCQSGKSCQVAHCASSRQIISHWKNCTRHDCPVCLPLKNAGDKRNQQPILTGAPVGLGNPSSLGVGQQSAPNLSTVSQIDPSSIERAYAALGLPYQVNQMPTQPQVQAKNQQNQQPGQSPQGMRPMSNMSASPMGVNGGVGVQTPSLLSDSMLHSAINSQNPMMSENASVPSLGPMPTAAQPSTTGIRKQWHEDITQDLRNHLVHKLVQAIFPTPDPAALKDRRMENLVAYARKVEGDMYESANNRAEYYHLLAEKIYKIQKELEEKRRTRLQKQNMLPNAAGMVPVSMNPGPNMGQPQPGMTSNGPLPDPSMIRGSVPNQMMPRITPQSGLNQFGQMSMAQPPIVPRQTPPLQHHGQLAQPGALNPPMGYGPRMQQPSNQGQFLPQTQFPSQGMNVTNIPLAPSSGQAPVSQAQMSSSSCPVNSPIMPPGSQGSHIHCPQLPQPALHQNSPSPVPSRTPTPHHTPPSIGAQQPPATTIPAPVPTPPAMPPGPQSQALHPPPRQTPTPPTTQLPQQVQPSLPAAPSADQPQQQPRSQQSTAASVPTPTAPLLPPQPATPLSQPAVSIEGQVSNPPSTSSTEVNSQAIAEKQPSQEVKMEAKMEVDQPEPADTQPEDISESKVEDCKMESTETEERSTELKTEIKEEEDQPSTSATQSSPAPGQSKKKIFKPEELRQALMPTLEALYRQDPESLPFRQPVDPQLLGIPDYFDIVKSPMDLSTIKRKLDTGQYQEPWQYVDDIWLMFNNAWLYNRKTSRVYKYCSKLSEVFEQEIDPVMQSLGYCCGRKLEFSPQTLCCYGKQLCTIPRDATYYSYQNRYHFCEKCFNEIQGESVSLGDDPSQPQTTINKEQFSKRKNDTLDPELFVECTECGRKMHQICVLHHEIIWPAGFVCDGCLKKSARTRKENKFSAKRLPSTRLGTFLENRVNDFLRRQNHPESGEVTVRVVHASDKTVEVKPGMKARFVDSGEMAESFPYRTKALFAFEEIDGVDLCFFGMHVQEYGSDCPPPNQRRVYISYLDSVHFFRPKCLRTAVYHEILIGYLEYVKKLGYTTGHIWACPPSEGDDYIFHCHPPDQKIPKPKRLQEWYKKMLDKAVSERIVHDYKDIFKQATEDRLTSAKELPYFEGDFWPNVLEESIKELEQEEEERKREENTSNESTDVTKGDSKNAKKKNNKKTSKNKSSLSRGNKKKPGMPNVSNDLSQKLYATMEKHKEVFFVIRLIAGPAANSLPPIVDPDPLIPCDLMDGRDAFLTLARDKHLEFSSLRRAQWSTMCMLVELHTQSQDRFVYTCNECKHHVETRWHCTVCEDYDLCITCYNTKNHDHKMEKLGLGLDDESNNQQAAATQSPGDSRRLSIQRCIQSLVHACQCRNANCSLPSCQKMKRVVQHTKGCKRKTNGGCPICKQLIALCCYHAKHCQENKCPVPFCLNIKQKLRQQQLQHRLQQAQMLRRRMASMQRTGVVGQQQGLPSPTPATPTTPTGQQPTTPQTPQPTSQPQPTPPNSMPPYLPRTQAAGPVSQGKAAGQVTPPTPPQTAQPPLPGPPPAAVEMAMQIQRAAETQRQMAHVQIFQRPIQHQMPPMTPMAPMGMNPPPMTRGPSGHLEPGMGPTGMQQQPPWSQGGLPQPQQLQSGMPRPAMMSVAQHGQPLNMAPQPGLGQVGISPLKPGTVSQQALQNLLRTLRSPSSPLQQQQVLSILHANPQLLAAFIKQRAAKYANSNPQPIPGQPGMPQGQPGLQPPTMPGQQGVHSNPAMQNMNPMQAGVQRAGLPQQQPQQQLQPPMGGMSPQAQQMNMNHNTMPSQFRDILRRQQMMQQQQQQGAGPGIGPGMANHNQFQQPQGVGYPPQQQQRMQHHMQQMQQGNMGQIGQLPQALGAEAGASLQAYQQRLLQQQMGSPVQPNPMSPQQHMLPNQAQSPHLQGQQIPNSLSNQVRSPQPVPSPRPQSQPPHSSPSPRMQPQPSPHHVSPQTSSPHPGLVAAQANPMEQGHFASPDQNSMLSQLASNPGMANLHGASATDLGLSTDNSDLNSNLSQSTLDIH
T1 sequence (Q92831 493-658): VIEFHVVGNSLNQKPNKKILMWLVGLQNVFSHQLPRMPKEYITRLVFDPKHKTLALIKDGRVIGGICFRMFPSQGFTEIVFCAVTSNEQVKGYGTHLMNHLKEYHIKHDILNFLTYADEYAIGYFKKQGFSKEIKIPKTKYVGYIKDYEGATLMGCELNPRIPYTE

| Compound | radioisotope [14C]Ac-CoA HAT assay, 50 μM probe (PCAF [1]) | inhibition at 50 µM (p300) [%] | IC50 (Tip60) [µM] | IC50 (PCAF [2]) [µM] |
| --- | --- | --- | --- | --- |
| CCN(CC)c1ccc2c(C)c(-c3ccc(N4C(=O)C=CC4=O)cc3)c(=O)oc2c1 [CPM] | Several compounds (e.g. CPM and P28) also considerably inhibited the activity of PCAF. | > 90 | – | – |
| CC(=O)N[C@@H](CCCCNC(=O)CSCCNC(=O)CCNC(=O)[C@H](O)C(C)(C)COP(=O)(O)OP(=O)(O)OC[C@H]1O[C@@H](n2cnc3c(N)ncnc32)[C@H](O)[C@@H]1OP(=O)(O)O)C(N)=O [Lys-CoA] | – | – | 26 | 96 |
| O=C1C=CC(=O)N1c1ccc2ccc3cccc4ccc1c2c34 [P28] | – | > 90 | – | – |
